From patent US7511144B2, “Reverse hydroxamic acid derivatives” (Kaken Pharmaceutical Co., Ltd., priority 2001, dated 2009) come the findings set out here.

Type in all cases: biochemical
One test has as its target T1, Human MMP3 (Homo sapiens, UniProt P08254).
T1 construct: purchased Calbiochem 444217
As to the kind of experiment: MMP3 inhibition experiment. Particulars: concentration required for 50% inhibition of enzyme activity; read-out: IC50 value MMP-3. The procedure: (§1) MMP inhibition experiment may be carried out using a fluorescent synthetic substrate according to, for example, the methods of Bickett et al. (D. Mark Bickett et al., Anal. Biochem., 1993, 212, 58-64) and Nagase et al. (H. Nagase et al., J. Biol. Chem., 1994, 269, 20952-20957). The methods of inhibition experiments carried out for various MMPs are described below.
Human MMP3 (Calbiochem #444217) in 90 μL (5 ng) prepared in the assay buffer A was added to 90 μL of 20 μM fluorescent substrate NFF-3(MOCAc-Arg-Pro-Lys-Pro-Val-Glu-Nva-Trp-Arg-Lys(Dnp)-NH2, Peptide Institute, Inc., #3168-v) prepared in the assay buffer B, followed by reaction for 5 hours at 37° C.

A further test addresses T2, Human MMP1 (Homo sapiens, UniProt P03956).
T2 construct: purchased Calbiochem 444208
T2 sequence (P03956 100-469): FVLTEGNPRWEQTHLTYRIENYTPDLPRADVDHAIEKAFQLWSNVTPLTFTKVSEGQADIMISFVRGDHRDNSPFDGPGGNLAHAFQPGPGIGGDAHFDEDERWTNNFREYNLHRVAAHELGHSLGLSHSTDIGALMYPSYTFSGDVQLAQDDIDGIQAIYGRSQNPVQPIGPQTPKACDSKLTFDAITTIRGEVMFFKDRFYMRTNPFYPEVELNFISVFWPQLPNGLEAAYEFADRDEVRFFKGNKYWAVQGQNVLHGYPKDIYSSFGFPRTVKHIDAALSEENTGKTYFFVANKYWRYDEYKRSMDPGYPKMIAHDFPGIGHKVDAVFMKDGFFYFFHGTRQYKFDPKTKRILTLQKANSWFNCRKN
As to the kind of experiment: MMP1 inhibition experiment. To be noted: read-out: IC50 value MMP-1.

A further test deals with T3, Human MMP13 (Homo sapiens, UniProt P45452).
T3 construct: purchased Chemicon CC068
Kind of test: MMP13 inhibition experiment. Particulars: concentration required for 50% inhibition of enzyme activity; read-out: IC50 value MMP-13.

The target in another test is T4, Human MMP17 (Homo sapiens, UniProt Q9ULZ9).
T4 construct: purchased Calbiochem 475940
T4 sequence (Q9ULZ9 126-300 limits assumed): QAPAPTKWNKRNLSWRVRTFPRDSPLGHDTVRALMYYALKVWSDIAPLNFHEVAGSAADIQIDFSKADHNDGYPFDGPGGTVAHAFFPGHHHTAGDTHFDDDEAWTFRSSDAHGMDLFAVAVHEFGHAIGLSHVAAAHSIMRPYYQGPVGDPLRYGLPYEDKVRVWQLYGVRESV
Kind of test: MMP17 inhibition test. To be noted: concentration required for 50% inhibition of enzyme activity; read-out: IC50 value MMP-17.

Another test deals with T5, Human MMP9 (Homo sapiens, UniProt P14780).
T5 construct: purchased Calbiochem 444231
T5 sequence (P14780 107-707 limits assumed): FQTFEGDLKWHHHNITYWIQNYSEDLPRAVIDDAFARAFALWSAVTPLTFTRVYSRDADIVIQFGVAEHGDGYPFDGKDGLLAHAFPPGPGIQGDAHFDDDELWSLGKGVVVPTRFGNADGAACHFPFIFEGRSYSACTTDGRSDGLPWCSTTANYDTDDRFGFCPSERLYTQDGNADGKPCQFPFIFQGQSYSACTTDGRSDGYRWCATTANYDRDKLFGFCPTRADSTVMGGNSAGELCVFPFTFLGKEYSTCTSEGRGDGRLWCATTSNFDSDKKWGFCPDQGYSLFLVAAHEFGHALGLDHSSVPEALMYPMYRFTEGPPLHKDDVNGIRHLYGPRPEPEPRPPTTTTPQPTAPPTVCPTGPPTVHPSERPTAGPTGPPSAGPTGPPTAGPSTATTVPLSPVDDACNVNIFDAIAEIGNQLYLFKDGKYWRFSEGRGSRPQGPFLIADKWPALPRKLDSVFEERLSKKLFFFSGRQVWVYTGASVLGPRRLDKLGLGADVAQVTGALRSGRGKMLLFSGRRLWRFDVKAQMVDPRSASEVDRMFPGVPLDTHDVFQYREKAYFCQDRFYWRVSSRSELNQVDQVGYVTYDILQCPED
As to the kind of experiment: MMP9 inhibition experiment. To be noted: read-out: IC50 value MMP-9.

A further test deals with T6, Human MMP2 (Homo sapiens, UniProt P08253).
T6 construct: purchased Calbiochem 444213
T6 sequence (P08253 110-660): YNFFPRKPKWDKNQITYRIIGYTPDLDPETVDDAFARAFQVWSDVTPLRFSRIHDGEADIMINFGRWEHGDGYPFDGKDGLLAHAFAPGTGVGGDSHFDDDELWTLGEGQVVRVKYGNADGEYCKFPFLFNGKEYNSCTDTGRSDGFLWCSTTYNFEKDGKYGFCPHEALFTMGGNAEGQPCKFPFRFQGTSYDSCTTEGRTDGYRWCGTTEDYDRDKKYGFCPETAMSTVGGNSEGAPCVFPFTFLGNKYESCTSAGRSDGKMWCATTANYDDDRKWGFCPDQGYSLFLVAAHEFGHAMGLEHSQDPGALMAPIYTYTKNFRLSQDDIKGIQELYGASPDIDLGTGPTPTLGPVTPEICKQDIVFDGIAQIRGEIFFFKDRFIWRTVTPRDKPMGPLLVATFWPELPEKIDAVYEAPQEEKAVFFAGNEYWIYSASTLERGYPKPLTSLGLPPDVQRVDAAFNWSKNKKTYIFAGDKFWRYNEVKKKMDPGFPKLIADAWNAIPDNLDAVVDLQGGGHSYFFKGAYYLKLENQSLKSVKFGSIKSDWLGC
As to the kind of experiment: MMP2 inhibition experiment. To be noted: concentration required for 50% inhibition of enzyme activity; read-out: IC50 value MMP-2.

Another test concerns the target T7, Human MMP14 (Homo sapiens, UniProt P50281).
T7 construct: purchased Biogenesis or Calbiochem 5980-1461 or 475935
Kind of test: MMP14 inhibition experiment. Particulars: concentration required for 50% inhibition of enzyme activity; read-out: IC50 value MMP-14. The protocol:
as §1
Human MMP14 (Biogenesis #5980-1461 or Calbiochem #475935) in amount of 90 μL (4 ng) prepared in the assay buffer A was added to 90 μL of 20 μM fluorescent substrate (Dnp-Pro-Cha-Gly-Cys(Me)-His-Ala-Lys(Nma)-NH2) prepared in the assay buffer B, followed by reaction for 5 hours at 37° C.

The next test has as its target T8, TACE (Homo sapiens, UniProt P78536).
T8 construct: made in house; host or cells: mammalian cells or insect cells
As to the kind of experiment: TACE inhibition experiment (in vitro).

T1 sequence (P08254 100-272 limits assumed): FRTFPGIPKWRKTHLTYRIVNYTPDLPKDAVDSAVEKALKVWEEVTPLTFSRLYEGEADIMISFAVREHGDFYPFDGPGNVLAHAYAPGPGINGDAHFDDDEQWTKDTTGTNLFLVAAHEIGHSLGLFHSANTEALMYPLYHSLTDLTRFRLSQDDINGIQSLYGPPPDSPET
T8 sequence (P78536 215-824): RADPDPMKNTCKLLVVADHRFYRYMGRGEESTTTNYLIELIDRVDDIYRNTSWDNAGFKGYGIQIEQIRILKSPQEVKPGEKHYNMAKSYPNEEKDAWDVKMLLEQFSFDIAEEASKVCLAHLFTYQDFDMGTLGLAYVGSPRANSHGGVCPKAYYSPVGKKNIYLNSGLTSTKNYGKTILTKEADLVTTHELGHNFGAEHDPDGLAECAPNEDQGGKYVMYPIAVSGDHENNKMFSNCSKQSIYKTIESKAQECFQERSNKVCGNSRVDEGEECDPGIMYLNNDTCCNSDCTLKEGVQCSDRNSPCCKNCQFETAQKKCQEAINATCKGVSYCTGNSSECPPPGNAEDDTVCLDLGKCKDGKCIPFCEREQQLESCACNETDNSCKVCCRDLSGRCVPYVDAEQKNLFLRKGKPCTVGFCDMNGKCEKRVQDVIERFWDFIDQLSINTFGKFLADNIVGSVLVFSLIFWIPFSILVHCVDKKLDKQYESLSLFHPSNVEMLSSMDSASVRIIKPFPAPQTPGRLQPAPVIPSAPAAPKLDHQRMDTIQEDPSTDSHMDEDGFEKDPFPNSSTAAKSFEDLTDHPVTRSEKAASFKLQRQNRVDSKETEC
Experimental for Human MMP13: Human MMP13 (Chemicon #CC068) in amount of 90 μL (200 ng) was activated by mixing with 10 μL of 10 mM APMA, followed by reaction for 1 hour at 37° C. This enzyme solution in amount of 0.6 μL was diluted to 90 μL with the assay buffer A, which was added to 90 μL of 20 μM fluorescent substrate (Dnp-Pro-Cha-Gly-Cys(Me)-His-Ala-Lys(Nma)-NH2) prepared in the assay buffer B, followed by reaction for 4 hours at 37° C.
Experimental for Human MMP2: This enzyme solution in amount of 10 μL was diluted to 90 μL with the assay buffer A, which was added to 90 μL of 20 μM fluorescent substrate (MOCAc((7-methoxycoumarin-4-yl)acetyl)-Pro-Leu-Gly-Leu-A2pr(Dnp)-Ala-Arg-NH2, Peptide Institute, Inc., #3163-v) prepared in the assay buffer B, followed by reaction for 5 hours at 37° C.
Experimental for Human MMP9: This enzyme solution in amount of 1 μL was diluted to 90 μL with the assay buffer A, which was added to 90 μL of 20 μM fluorescent substrate (Dnp-Pro-Cha-Gly-Cys(Me)-His-Ala-Lys(Nma)-NH2) prepared in the assay buffer B, followed by reaction for 4 hours at 37° C.

Regarding `Cc1cc(COc2ccc(S(=O)(=O)CC(CN3CCN(CC(C)C)CC3)N(O)C=O)cc2)c2ccccc2n1` (stereo not drawn) [Example I-46], the IC50 was 4.4 µM on Human MMP3; > 100 µM at Human MMP1; 42 µM at Human MMP13; 0.65 µM at Human MMP17; > 100 µM on Human MMP9; 20 µM at Human MMP2. Further, the IC50 on Human MMP14 was > 100 µM; against TACE, 0.022 µM.

As to `CON=C1CCC(C(CS(=O)(=O)c2ccc(OCc3cc(C)nc4ccccc34)cc2)N(O)C=O)CC1` (stereo not drawn) [Example I-12], the IC50 at Human MMP3 turned out to be 3 µM; at Human MMP1, 45 µM; on Human MMP13, 10 µM; on Human MMP17, 2 µM; at Human MMP9, 28 µM; on Human MMP2, 30 µM. Further, the IC50 at Human MMP14 is 35 µM; against TACE, 0.07 µM.

As for `Cc1cc(COc2ccc(S(=O)(=O)CC(CC3CCC(=O)CC3)N(O)C=O)cc2)cc(C)n1` (stereo not drawn) [Example I-113], the IC50 on Human MMP3 turned out to be 8 µM; on Human MMP1, 60 µM; on Human MMP13, 2.3 µM; on Human MMP17 it was 6 µM; on Human MMP9, 70 µM; on Human MMP2 it was 2 µM. Also, the figures for the IC50 on Human MMP14 and against TACE were 60 µM and 0.13 µM, respectively.

Turning to `Cc1cc(Cl)cc(COc2ccc(S(=O)(=O)CC(CC3CCC4(CC3)OCCO4)N(O)C=O)cc2)c1` (stereo not drawn) [Example I-99], the IC50 on Human MMP3 was 6 µM; on Human MMP1, 40 µM; on Human MMP13, 18 µM; at Human MMP17 it was 13 µM; on Human MMP9 it was 20 µM; on Human MMP2, 5 µM. Moreover, the IC50 at Human MMP14 worked out at 25 µM; at TACE, 1.1 µM.

`Cc1cc(COc2ccc(S(=O)(=O)CC(c3ccccc3C)N(O)C=O)cc2)c2ccccc2n1` (stereo not drawn) [Example I-23]: the IC50 on Human MMP3 amounted to 3 µM; on Human MMP1 it was 60 µM; at Human MMP13, 15 µM; at Human MMP17, 2.1 µM; at Human MMP9, 50 µM; on Human MMP2 it was 30 µM. Also, the IC50 was determined as 33 µM at Human MMP14 and 0.005 µM against TACE.

`Cc1cc(Cl)cc(COc2ccc(S(=O)(=O)CC(CC3CCC(=O)CC3)N(O)C=O)cc2)c1` (stereo not drawn) [Example I-101]: the IC50 at Human MMP3 came to 7 µM; at Human MMP1, 40 µM; on Human MMP13, 3 µM; at Human MMP17, 5 µM; at Human MMP9 it was 20 µM; on Human MMP2, 2.3 µM. For the same molecule, the IC50 at Human MMP14 was found to be 20 µM; on TACE, 0.12 µM.

On to `Cc1cc(COc2ccc(S(=O)(=O)CC(C=C3CCC(=O)CC3)N(O)C=O)cc2)cc(C)n1` (stereo not drawn) [Example I-114], for which the IC50 at Human MMP3 is 23 µM; on Human MMP1, > 100 µM; on Human MMP13, 10 µM; on Human MMP17, 30 µM; on Human MMP9 it was > 100 µM; on Human MMP2, 7 µM. Besides, the IC50 on Human MMP14 is > 100 µM; against TACE, 0.1 µM.

For `Cc1ccc2nc(C)cc(COc3ccc(S(=O)(=O)CC(CC4CCC(=NO)CC4)N(O)C=O)cc3)c2c1` (stereo not drawn) [Example I-76], the IC50 at Human MMP3 turned out to be 0.8 µM; at Human MMP1 it was 40 µM; at Human MMP13, 6 µM; on Human MMP17, 1.6 µM; at Human MMP9 it was 40 µM; on Human MMP2, 10 µM. Moreover, the IC50 worked out at 31 µM at Human MMP14 and 0.005 µM against TACE.

Turning to `Cc1cc(Cl)cc(COc2ccc(S(=O)(=O)CC(CC3CCC(=NO)CC3)N(O)C=O)cc2)c1` (stereo not drawn) [Example I-100], the IC50 at Human MMP3 was found to be 7 µM; on Human MMP1, 43 µM; at Human MMP13, 6 µM; at Human MMP17 it was 7 µM; at Human MMP9 it was 23 µM; on Human MMP2, 4 µM. Also, the IC50 at Human MMP14 came to 25 µM; against TACE it was 0.2 µM.

Take `Cc1cc(Cl)cc(COc2ccc(S(=O)(=O)CC(C3CCC4(CC3)OCCO4)N(O)C=O)cc2)c1` (stereo not drawn) [Example I-98]: the IC50 on Human MMP3 stood at 1.2 µM; at Human MMP1 it was 50 µM; on Human MMP13 it was 2 µM; on Human MMP17, 1.6 µM; on Human MMP9, 20 µM; at Human MMP2 it was 2 µM. In addition, the IC50 on Human MMP14 was 7 µM; against TACE, 0.08 µM.

As to `Cc1cc(Cl)cc(COc2ccc(S(=O)(=O)CC(C=C3CCC(=NO)CC3)N(O)C=O)cc2)c1` (stereo not drawn) [Example I-102], the IC50 on Human MMP3 was 25 µM; at Human MMP1, 80 µM; at Human MMP13, 16 µM; on Human MMP17 it was 30 µM; on Human MMP9, 40 µM; at Human MMP2, 20 µM. The values for the IC50 on Human MMP14 and at TACE were 33 µM and 0.13 µM, respectively.

On to `Cc1cc(COc2ccc(S(=O)(=O)CC(C3CCC(=NOC=O)CC3)N(O)C=O)cc2)c2ccccc2n1` (stereo not drawn) [Example I-13], for which the IC50 was found to be 3 µM on Human MMP3; 60 µM at Human MMP1; 10 µM on Human MMP13; 0.7 µM on Human MMP17; 28 µM on Human MMP9; 40 µM on Human MMP2. Moreover, the IC50 on Human MMP14 was 40 µM; on TACE, 0.021 µM.

Regarding `COc1cc(C)cc(COc2ccc(S(=O)(=O)CC(CC3CCC4(CC3)OCCO4)N(O)C=O)cc2)c1` (stereo not drawn) [Example I-93], the IC50 at Human MMP3 was 15 µM; on Human MMP1, 60 µM; on Human MMP13 it was 12 µM; at Human MMP17 it was 20 µM; on Human MMP9, 30 µM; on Human MMP2, 10 µM. In addition, the IC50 at Human MMP14 was found to be 33 µM; against TACE, 0.3 µM.

In the case of `CC(=O)N(O)C(C=C1CCSCC1)CS(=O)(=O)c1ccc(OCc2cc(C)nc3ccccc23)cc1` (stereo not drawn) [Example I-126, N-hydroxy-N-{2-[4-(2-methylquinolin-4-ylmethoxy)benzenesulfonyl]-1-(tetrahydrothipyran-4-ylidenemethyl)ethyl}acetamide], the IC50 on Human MMP3 is 12 µM; on Human MMP1, > 100 µM; at Human MMP13, 70 µM; on Human MMP17, 6.3 µM; at Human MMP9, > 100 µM; on Human MMP2, > 100 µM. The values for the IC50 at Human MMP14 and against TACE were > 100 µM and 0.31 µM, respectively.

On to `Cc1cc(C)cc(COc2ccc(S(=O)(=O)CC(C=C3CCC4(CC3)OCCO4)N(O)C=O)cc2)c1` (stereo not drawn) [Example I-91], for which the IC50 on Human MMP3 is 35 µM; at Human MMP1, > 100 µM; on Human MMP13 it was 35 µM; on Human MMP17, 40 µM; at Human MMP9, 33 µM; at Human MMP2 it was 43 µM. Also, the values for the IC50 at Human MMP14 and against TACE were 40 µM and 0.4 µM, respectively.
